Data: article PMC5077990, “P53 activation inhibits all types of hematopoietic progenitors and all stages of megakaryopoiesis” (Oncotarget, 2016)
“Also recorded” adds a separate entry of the source. Read-outs that look alike come from different tables or passages of the source.

Experiments:
[1] = parameters: method as in PMID 25145672; conditions: cited from earlier work
[2] = tested on: day 10-MKs (proplatelet formation); assay: Proplatelet formation assay; type: cell-based, human
Experimental: Then, we explored the effects of p53 stabilization on PPT formation (the step before platelet release). […] To confirm that this was due to p53 stabilization, we knocked-down p53 with 2 shRNA showing a decrease in P53 RNA and protein levels (Figure 7B/7C) and reduced expression of p53 targets (Figure 7D).
Figure 7 Effects of p53 stabilization on PPT formation A. Percentage of proplatelet-forming day 10-MKs after incubation with 0.5 or 1 μM of SAR405838 or MI-219. […] A total of 200 cells per well were counted during 4 days. Error bars in histograms represent the SD of one representative experiment performed in triplicate wells. Similar results were obtained in 3 repeated experiments. * represents statistical significance (**P<0.01). […] D. p53, MDM2, BCL-XL, BAX and p21 protein levels were analyzed in GFP^+/CD41^+ sorted cells by Western blot (at days 10 and 13 of culture). β-actin was used as loading control. […] A total of 200 cells per well were counted during 4 days (from day 11 to day 14). […]
CD41^+GFP^+ MKs were sorted at day 8 of culture and plated in 96-well plates at a concentration of 2,000 cells/well in serum-free medium containing TPO, and quantification of PPT bearing MKs was performed as previously described. […] A total of 200 cells per well were counted during 4 days. […]

[3] = tested on: CFU-GM (Colony Forming Unit-Granulocyte Macrophage) progenitors from CD34+ cells; assay: Colony assay in methylcellulose, CFU-GM; type: cell-based, human; conditions: Homo sapiens, CFU-GM
Experimental: CD34^+cells were obtained from leukapheresis samples after mobilization of donors after informed consent in agreement with our Institute Ethic Committee (Assistance Publique des Hôpitaux de Paris) and in accordance with the Declaration of Helsinki. CD34^+cells were isolated by a positive selection using an immunomagnetic cell sorting system (AutoMacs; Miltenyi Biotec, Bergisch Gladbach, Germany). 500 to 1000 normal CD34^+cells were plated either in 1% methylcellulose assay (StemCells technologies, Vancouver, Canada) to quantify erythroid (BFU-E) and granulo-monocytic (CFU-GM) progenitors or in serum-free fibrin clot assay for quantification of MK progenitors (CFU-MK) in the absence or presence of various concentration of SAR405838 or MI-219. Cultures in methylcellulose were stimulated by addition of human recombinant growth factors: G-CSF (20 ng/mL), IL-3 (10 ng/mL) SCF (25 ng/mL, Biovitrum AB, Stockholm, Sweden), IL-6 (10 ng/mL), FLT3 (10 ng/mL) and human EPO (1 U/mL). Cultures in fibrin clot were stimulated with 10 ng/mL TPO (Kirin Brewery, Tokyo, Japan) and 25 ng/mL SCF. […] CFU-MK colonies were enumerated at day 12 after labeling by an indirect immuno-alkaline phosphatase staining technique using an anti-CD41a monoclonal antibody (MoAb; Becton Dickinson, le Pont de Claix, France; clone HIP8), as previously described.

Day 8-erythroblasts = assay: Viable erythroblasts counted by Trypan blue exclusion; type: cell-based; conditions: Homo sapiens, day 8-erythroblasts treated 48 hours, read-out: IC50, decrease in viable cells
Experimental: Day 8-erythroblasts were treated with various doses of SAR405838 or MI-219 for 48 hours. The viable cells were counted by Trypan blue exclusion and the apoptotic cells were quantified by flow cytometry analysis using annexin V/ propidium iodide labeling.
B. Day 8-erythroblasts were treated with various doses of MI-219 or SAR405838 for 48 hours and counted by trypan blue exclusion. C. Day 8-erythroblasts were treated with various doses of MI-219 or SAR405838 for 48 hours and apoptotic cells were analyzed by flow cytometry using Annexin V assay. The results represent the mean of 3 independent experiments. * represents statistical significance (*P<0.05; **P<0.01; ***P<0.001).

## CC(C)(C)C[C@@H]1N[C@@H](C(=O)N[C@H]2CC[C@H](O)CC2)[C@H](c2cccc(Cl)c2F)[C@]12C(=O)Nc1cc(Cl)ccc12 [SAR405838]
[1]
  hematopoietic toxicity: reversible thrombocytopenia
[2]; 0.5 μM
  PPT (proplatelet) formation: inhibited; also recorded: drastically decreased
[2]; 1 μM
  PPT (proplatelet) formation: completely abrogated; also recorded: completely abolished
[3]; 72 h, CD34+ cells treated 3 days, washed, then plated in colony assay, read-out: IC50, reduction of CFU-GM progenitors
  IC50: ~2000 nM
[3]; CD34+ cells seeded in methylcellulose in the presence of compound, compared to untreated control, read-out: dose inducing a 50% reduction of CFU-GM numbers
  IC50: 500 to 1000 nM
Day 8-erythroblasts
  IC50: 500 nM
